Test results taken from patent US7045591B2, “Selective cyclic peptides with melanocortin-4 receptor (MC4-R) agonist activity” (Hoffmann-La Roche Inc., priority 2000, dated 2006).
Bridge positions count the residues as written; N and C are the ends. Square brackets hold non-standard residues; d marks the D form. Peptide text beside a SMILES is read from it. * marks the point of attachment. ξ: configuration not given here. Ac6c(4-Ph-cis-to-N) = N[C@]1(C(=O)O)CC[C@H](c2ccccc2)CC1; Pentanoyl = CCCCC(=O)*; ξK = NCCCCC(N)C(=O)O

Molecular target: T1, MC-4 receptor (Homo sapiens, UniProt P32245)
T1 construct: expressed in transfected cells; host or cells: HEK 293 cells (G418 selected)
T1 sequence (P32245 whole entry): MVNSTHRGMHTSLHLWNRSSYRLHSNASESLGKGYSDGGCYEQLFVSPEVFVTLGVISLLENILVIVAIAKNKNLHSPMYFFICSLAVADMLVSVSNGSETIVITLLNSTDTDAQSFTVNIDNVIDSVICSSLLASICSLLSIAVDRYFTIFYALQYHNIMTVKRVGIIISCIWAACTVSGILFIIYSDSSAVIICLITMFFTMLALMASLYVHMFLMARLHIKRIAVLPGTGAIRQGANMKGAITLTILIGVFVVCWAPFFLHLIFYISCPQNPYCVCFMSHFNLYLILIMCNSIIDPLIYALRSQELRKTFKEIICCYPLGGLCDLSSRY
Test: Agonist assay: cAMP response in HEK 293 cells transfected with the MC-4 receptor (Biotrak-cAMP SPA)
Type: cell-based
Conditions: HEK 293 cells transfected with MC-4 receptor, cAMP increase; read-out: EC50 for MC4-R agonist activity
Protocol: Description: HEK 293 cells transfected with either the MC-4 receptor or MC-1 receptor were grown in 96 well plates. The cells were stimulated with either 100 nM NDP-αMSH or screening compounds. Cyclic AMP was extracted from the cells and concentrations were determined using a Biotrak-cAMP SPA assay. Agonists were identified as those compounds causing an increase in cAMP.
Cell Culture: HEK 293 cells transfected with either the MC-4 receptor or MC-1 receptor were cultured in 75 cm^2 flasks in D-MEM supplemented with 10% FCS and 500 μg/ml G418. Cells were trypsinized and split 1:3 into 96 well flat-bottom tissue culture treated plates. Cells were stimulated at confluence (day 2-4).
cAMP Response: Compounds serially diluted in 100% DMSO were further diluted 1:200 (2.5 μl compound dilution +500 μl media) in D-MEM containing 10% FBS and 0.1 mM IBMX. For unstimulated cells, 2.5 μl of DMSO was added to 500 μl of media. For NDP-αMSH stimulated cells, 2.5 μl of 20μM NDP-αMSH in 100% DMSO was added to 500μl of media (final conc. 100 nM). Final concentration of DMSO in all wells was 0.5%.
Note: Each sample was run in duplicate on separate plates. […]
cAMP Assay: The extracted samples and all reagents included in the kit were brought to room temperature. […] [125I ]cAMP binding to the SPA beads was determined by counting each plate for 2 minutes on a Packard TopCount™. […]

EC50: < 500 nM
Compound: CCCCC(=O)N[C@H]1CC(=O)NCCCCC(C(N)=O)NC(=O)[C@H](Cc2c[nH]c3ccccc23)NC(=O)[C@H](C)NC(=O)[C@@H](Cc2ccccc2)NC(=O)[C@]2(CC[C@H](c3ccccc3)CC2)NC1=O (stereo partly drawn) [Penta-cyclo(Asp-Lys)-Asp-Apc-(D)Phe-Ala-Trp-Lys-NH2] (Pentanoyl-D[Ac6c(4-Ph-cis-to-N)][dF]AW[ξK]-NH2; lactam 1-6)
